“And” between values parts separate entries of the source, which are not always exact repeats. Equal values may be shown once.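 All cell lines were grown in 96-well plates and treated with compound for 48 hours. GI50 is the concentration that inhibits growth by half. At the TGI there is no net growth.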
Key:
Assay in all cases: NCI tumour cell line growth inhibition, 48 h
ACHN renal = system: ACHN renal
K-562 leukemia = system: K-562 leukemia
OVCAR-8 ovarian = system: OVCAR-8 ovarian
PC-3 prostate = system: PC-3 prostate
SK-MEL-5 melanoma = system: SK-MEL-5 melanoma
HCT-15 colon = system: HCT-15 colon
HL-60(TB) leukemia = system: HL-60(TB) leukemia
SF-295 CNS = system: SF-295 CNS

Structure (SMILES)	GI50 (ACHN renal)	TGI (ACHN renal)	GI50 (K-562 leukemia) [µM]	TGI (K-562 leukemia) [µM]	GI50 (OVCAR-8 ovarian) [µM]	TGI (OVCAR-8 ovarian)	GI50 (PC-3 prostate) [µM]	TGI (PC-3 prostate)	GI50 (SK-MEL-5 melanoma) [µM]	TGI (SK-MEL-5 melanoma)	GI50 (HCT-15 colon)	TGI (HCT-15 colon)	GI50 (HL-60(TB) leukemia) [µM]	TGI (HL-60(TB) leukemia) [µM]	GI50 (SF-295 CNS) [nM]	TGI (SF-295 CNS)
Nc1nc2c(s1)CCc1c-2c(Br)n(Cc2ccccc2)c1Br	2220 nM	5.23 µM	3.55	19.3	6.48	64.2 µM	12.8	45.5 µM	14.3	30.2 µM	3980 nM	15.9 µM	5.64	37.1	16600	33.4 µM
CN(C)c1ccc(N=C2C=CC(=[N+](C)C)C=C2)cc1	12200 nM	37.5 µM			4.51	> 100 µM	4.89	22.7 µM	3.26	11.8 µM	23500 nM	> 100 µM			4620	22.1 µM
COc1cc(OC)c(/C=C\c2ccnc3ccccc23)c(OC)c1		17.5 µM		2.24				23 µM		5.88 µM		18.5 µM		0.963		8.35 µM
c1cc2[nH]ncc2cc1-c1nc2ccc3[nH]ncc3c2c2c1CCCC2	583 nM	10.7 µM	0.468	> 44	2.66	15.9 µM	1.44	21.5 µM	1.67	3.92 µM	540 nM	11.2 µM	0.512	3.09	1840	7.58 µM
Cc1ccc2ncnc(N(CC(C)C)CC(C)C)c2c1	15300 nM	31.5 µM	3.69	21.7	12.1	31.9 µM	11	27.8 µM	6.9	25.6 µM	17900 nM	34.6 µM			16700	32.7 µM
Nc1nc(OCc2cc(Br)cs2)c2[nH]cnc2n1	13700 nM	52 µM	29.7	> 100	33.3	> 100 µM	21.8	> 100 µM	15.9	39.6 µM	18400 nM	> 100 µM	27.9	> 100	25900	> 100 µM
Cc1ccccc1-n1ncc(C(=O)c2ccccc2)c1N	> 25000 nM	> 25 µM	> 25	> 25	> 25	> 25 µM	> 25	> 25 µM	> 25	> 25 µM	> 25000 nM	> 25 µM	> 25	> 25	> 25000	> 25 µM
CC1(C)CCC2=C(O1)c1ccccc1C(=O)C2=O	1620 nM and 1020 nM	2.97 µM and 2.18 µM			0.53	2.27 µM and 1.59 µM	1.24	3.01 µM and 6.31 µM	1.01	2.19 µM and 0.714 µM	739 nM and 537 nM	2.33 µM and 1.79 µM	2.83	> 100	1670	3.1 µM and 1.68 µM
Cn1cc(C2=C(c3cn(C)c4c([N+](=O)[O-])cccc34)C(=O)NC2=O)c2ccccc21	> 25000 nM	> 25 µM	> 25	> 25	> 25	> 25 µM	> 25	> 25 µM	> 25	> 25 µM	> 25000 nM	> 25 µM	> 25	> 25	> 25000	> 25 µM
O=C1C(=O)c2c(nc3ccc(Br)cn23)-c2ccccc21	452 nM	1.55 µM	0.244	1.04	0.575	1.68 µM	0.688	2.47 µM	0.317	0.788 µM	759 nM	2.66 µM	0.242	0.624	1610	3.02 µM
COC(=O)[C@]12CC[C@@H](C)[C@H](C)[C@@H]1C1=CC[C@@H]3[C@@]4(C)C(C=O)=C[C@@](C)(COC(C)=O)C4=CC[C@@]3(C)[C@]1(C)CC2	3120 nM	12.4 µM	4.1	15.3	4.46	18.9 µM	3.07	13.9 µM	10.5	22.6 µM	3380 nM	12.1 µM	2.68	6.49	2980	11.9 µM
COc1ccc2c(CN3CCC(C(=O)O)CC3)cc3cc4c(cc3c2c1)OCO4	1410 nM	5.45 µM	2.66	11.3	1.28	4.86 µM	2.26	6.05 µM	1.62	3.14 µM	2760 nM	16.7 µM	3.97	15.3	2390	10.1 µM
Clc1cccc(Cl)c1C1CSc2ccccc2N=C1c1ccccc1 (stereo not given)	2450 nM	7.3 µM			3.34	10.2 µM	5.6	20.9 µM	4.74	18.1 µM	1660 nM	3.98 µM	8.2	38.7	13600	31.7 µM
C=C(C)[C@@H]1CC[C@]2(C(=O)O)CC[C@]3(C)[C@H](CC[C@@H]4[C@@]5(C)C[C@@H](CC#Cc6ccc(C(F)(F)F)cc6)[C@H](O)C(C)(C)[C@@H]5CC[C@]43C)[C@@H]12	4040 nM	> 100 µM	1.93	> 100	3.55	> 100 µM			8.97	> 100 µM	3950 nM	> 100 µM	6.2	> 100		
COc1ccc(C(SCC(N)C(=O)O)(c2ccccc2)c2ccccc2)cc1 (stereo not given)	3730 nM	> 100 µM	0.0567	> 45.8	0.482	> 100 µM	0.185	> 100 µM	0.0623	19.7 µM	451 nM	> 72.2 µM	0.136		94.8	> 100 µM
NC(=O)c1ccc(NN=O)nc1		> 100 µM		> 100		> 100 µM		> 100 µM		> 100 µM		> 100 µM		> 100		> 100 µM
COc1ccc2c(c1)[n+](=O)c(C(=O)c1ccco1)c(C(F)(F)F)n2[O-]	514 nM	2.53 µM	5.24	> 100	2.23	9.41 µM	4.64	> 100 µM	1.31	2.68 µM	1160 nM	4.6 µM	3.29	> 100	2790	14.7 µM

From PubChem BioAssay (NCI)
